System: T1, β-glucosidase
T1 construct: gene beta-D-glucoside glucohydrolase; not purified to one protein, isoenzyme not defined
Experiment: p-nitrophenol release at […] nm; nonlinear fit (Solver)
Type: biochemical, Aspergillus sp.
Conditions: free enzyme, partially purified extract; acetate buffer, optimal pH (4.5) and temperature (65 °C optimum)

`O=[N+]([O-])c1ccc(O[C@@H]2O[C@H](CO)[C@@H](O)[C@H](O)[C@H]2O)cc1` [4-Nitrophenyl-β-D-glucopyranoside] was tested, and the Km was 1600 µM.

Source: PMC3170910, “Screening of Supports for the Immobilization of β-Glucosidase” (Enzyme Research, 2011)
